Measured values as given in BindingDB's records for doi:10.1038/nchembio.2208 (Novartis Pharma, 2016).

Assays:
[1] = molecular target: T1, Kallikrein-7 [37-253,Y180R] (Homo sapiens, UniProt P49862, Y180R); assay: Human KLK7 Fluorescence-Lifetime Assay; conditions: pH 5.6; 25 °C
T1 construct: 37-253
Method: The enzyme reaction was initiated by addition of the substrate Ac-[…]PT14)-Glu-NH2 (0.8 μM; Biosyntan, Berlin, Germany, product BS-#7599). Fluorescence-lifetime measurements were conducted on an Ultra Evolution fluorescence lifetime reader (TECAN, M nnedorf, Switzerland). The excitation light source was a semiconductor laser at 405 nm, producing picosecond light pulses with a selected repetition frequency of 10 MHz. The emission was collected through a 450 nm bandpass filter with 25 nm bandwidth. The measurement time per well was set to 1 s, yielding approximately 1,000 counts in the peak channel. The parameters used as assay readout were the mono-exponential lifetimes.

[2] = molecular target: T2, Complement factor D [24-253] (Mus musculus, UniProt P03953); assay: Complement FD Thioesterolysis Assay; conditions: pH 7.5; 25 °C
T2 construct: 24-253
T2 sequence (P03953 whole entry): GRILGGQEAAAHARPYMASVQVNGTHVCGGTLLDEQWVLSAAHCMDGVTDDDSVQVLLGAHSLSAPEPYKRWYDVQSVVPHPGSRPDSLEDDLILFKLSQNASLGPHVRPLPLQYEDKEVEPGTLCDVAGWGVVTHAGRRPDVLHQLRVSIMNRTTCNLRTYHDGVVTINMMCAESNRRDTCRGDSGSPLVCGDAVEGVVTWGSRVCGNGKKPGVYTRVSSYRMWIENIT

[3] = molecular target: T3, Complement factor B [470-764] (UniProt P00751); assay: Human FB Proteolysis Assay (ELISA C3a); conditions: pH 7.4; 4 °C
T3 construct: 470-764
T3 sequence (P00751 470-764): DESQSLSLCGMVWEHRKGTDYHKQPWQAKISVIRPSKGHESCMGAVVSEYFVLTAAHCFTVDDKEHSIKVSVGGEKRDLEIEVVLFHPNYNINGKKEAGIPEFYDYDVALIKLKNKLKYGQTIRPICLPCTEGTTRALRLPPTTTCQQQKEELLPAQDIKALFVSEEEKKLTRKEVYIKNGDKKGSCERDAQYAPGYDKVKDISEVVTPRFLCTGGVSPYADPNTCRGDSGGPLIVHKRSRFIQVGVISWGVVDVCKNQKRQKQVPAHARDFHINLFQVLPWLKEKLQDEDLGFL
Method: The enzyme reaction was started by addition of C3 diluted in the assay buffer to a final concentration of 1 μM.

[4] = molecular target: T4, Complement factor D [24-253] (Homo sapiens, UniProt P00746); assay: Complement FD Thioesterolysis Assay; conditions: pH 7.5; 25 °C
T4 construct: 24-253
T4 sequence (P00746 24-253): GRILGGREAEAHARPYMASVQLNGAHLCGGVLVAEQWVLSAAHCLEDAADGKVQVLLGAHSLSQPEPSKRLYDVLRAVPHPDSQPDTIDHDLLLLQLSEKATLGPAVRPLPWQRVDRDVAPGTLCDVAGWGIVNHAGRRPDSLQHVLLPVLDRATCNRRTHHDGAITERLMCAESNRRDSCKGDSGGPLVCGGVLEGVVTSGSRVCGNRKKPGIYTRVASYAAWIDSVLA

T1 sequence (P49862 37-253 Y180R): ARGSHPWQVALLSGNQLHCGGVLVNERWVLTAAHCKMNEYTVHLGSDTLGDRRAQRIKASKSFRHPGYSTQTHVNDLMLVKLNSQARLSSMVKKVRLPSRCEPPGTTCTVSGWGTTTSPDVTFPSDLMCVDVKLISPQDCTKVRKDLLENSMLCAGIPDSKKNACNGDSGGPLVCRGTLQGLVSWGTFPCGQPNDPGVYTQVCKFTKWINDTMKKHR

Compound | IC50 [1] | IC50 [2] | IC50 [3] | IC50 [4]
NC(=O)c1nn(CC(=O)N2[C@@H]3C[C@@H]3C[C@H]2C(=O)Nc2cccc(Br)n2)c2ccccc12 [1-(2-((1R,3S,5R)-3-((6-Bromopyridin-2-yl)carbamoyl)-2-azabicyclo[3.1.0]hexan-2-yl)-2-oxoethyl)-1H-indazole-3-carboxamide (7)] | > 100 µM |  |  | 
C[C@@H](NC(=O)[C@@H]1C[C@H]2C[C@H]2N1C(=O)Cn1nc(C(N)=O)c2ccncc21)c1cccc(Cl)c1F [1-(2-((1R,3S,5R)-3-(((R)-1-(3-Chloro-2-fluorophenyl)ethyl)carbamoyl)-2-azabicyclo[3.1.0]hexan-2-yl)-2-oxoethyl)-1H-pyrazolo[3,4-c]pyridine-3-carboxamide (6)] | > 100 µM | 0.86 µM | > 100 µM | 
NC(=O)c1cc2cc(OCc3cccc(C(=O)O)c3)ccc2[nH]1 [3-(((2-Carbamoyl-1H-indol-5-yl)oxy)methyl)benzoic acid (4)] |  |  | > 100 µM | 
COc1ccc(CCNC(=O)[C@@H]2CCCN2C(=O)NCc2cccc3ccccc23)cc1 [(S)-N2-(4-methoxyphenethyl)-N1-(naphthalen-1-ylmethyl)pyrrolidine-1,2-dicarboxamide (1)] | 0.7 µM |  |  | > 30 µM
Cn1cc(NC(=O)N2CCC[C@H]2C(=O)NC(c2ccccc2)c2ccccc2)c2ccccc21 [(S)-N2-benzhydryl-N1-(1-methyl-1H-indol-3-yl)pyrrolidine-1,2-dicarboxamide (5)] | > 100 µM |  | > 100 µM | 5.8 µM
COC(=O)c1ccccc1CNC(=O)N1CCC[C@H]1C(=O)Nc1cccc(OC(F)(F)F)c1 [Methyl (S)-2-((2-((3-(trifluoromethoxy)phenyl)carbamoyl)pyrrolidine-1-carboxamido)-methyl)benzoate (2)] | 8.7 µM |  | > 100 µM | 
